The values below come from patent publication US9138494B2, “Radiolabeled PDE10A ligands” (AbbVie Inc., priority 2011, dated 2015).

Molecules are shown by their SMILES.

Series [1] can be described thus: Rat PK (0.05 mg/kg, iv), free brain concentration and free B/P. Type of series: in vivo.
A short description of series [2]: Monkey microsome half-life. Type of series: in vitro ADME. The note with it: monkey microsomes; read-out: Monkey Microsome T1/2.
A short description of series [3]: Rat hepatocyte half-life. Type of series: in vitro ADME. The conditions noted are these: hepatocytes; rat (R); read-out: Hepatocyte T1/2.
The nature of series [4]: Human hepatocyte half-life. The class given is in vitro ADME. The conditions noted are these: for half-life: hepatocytes, human (H), read-out: Hepatocyte T1/2.
The nature of series [5]: log D determined by shake flask method. Type of series: physicochemical. The conditions noted are these: read-out: SF log D.
In series [6] the target is PDE10A (Homo sapiens, UniProt Q9Y233). Put plainly: PDE enzymatic inhibition assay (HTRF cAMP kit). The class given is biochemical. The conditions noted are these: recombinant PDE10, 20 nM substrate, 60 minutes at 29° C. On the procedure:
Recombinant PDE proteins were used in in vitro enzymatic reaction for measurement of PDE activity. […] The enzymatic activity of PDEs was determined by cAMP measurement kit from CisBio (IBA) using HTRF technology. The PDE enzymatic reaction was carried out in assay buffer (20 mM Tris-HCl pH7.5, 10 mM MgCl2, 0.1% bovine serum albumin) containing enzyme and substrate. The PDE enzymes concentration ranged from 10 pM-250 pM, depending on each enzyme's specific activity. […] The inhibitory effect of compound was determined by incubating various concentration of inhibitor in the enzymatic assay. […] Next, the compound at varying concentration was mixed with PDE enzyme. The reaction was initiated by addition of cyclic nucleotide substrate, and incubated for 60 minutes at 29° C. The reaction was stopped by addition of lysis buffer from assay kit. The cAMP-d2 and anti-cAMP cryptate in the lysis buffer detected the level of cAMP left from the PDE hydrolysis reaction. […] Thus, IC50 value of inhibitor can be obtained by plotting inhibitor concentration against PDE activity at that concentration.
For orientation: Time-resolved FRET reads energy transfer from a long-lived donor to a nearby acceptor.

Series [7] deals with rats. The conditions noted are these: cited from earlier work.
In series [8] the test system is rats. The conditions noted are these: cited from earlier work. The source holds these as a separate data set.
The test system of series [9] is rats. The note with it: cited from earlier work. The source holds these as a separate data set.
For series [10], the target named is P-gp (Homo sapiens (Human), UniProt P08183). The series is described as follows: MDCK-MDR1 assay, Efflux Ratio (P-gp). The class given is in vitro ADME. The conditions noted are these: dog; MDCK-MDR1 cells.

Usually IC50 stands for the point on the concentration scale where inhibition reaches its midpoint. As usually defined, the efflux ratio is a quotient of directional permeabilities that is used to spot active efflux.

Chain of PDE10A (Q9Y233 whole entry, looked up): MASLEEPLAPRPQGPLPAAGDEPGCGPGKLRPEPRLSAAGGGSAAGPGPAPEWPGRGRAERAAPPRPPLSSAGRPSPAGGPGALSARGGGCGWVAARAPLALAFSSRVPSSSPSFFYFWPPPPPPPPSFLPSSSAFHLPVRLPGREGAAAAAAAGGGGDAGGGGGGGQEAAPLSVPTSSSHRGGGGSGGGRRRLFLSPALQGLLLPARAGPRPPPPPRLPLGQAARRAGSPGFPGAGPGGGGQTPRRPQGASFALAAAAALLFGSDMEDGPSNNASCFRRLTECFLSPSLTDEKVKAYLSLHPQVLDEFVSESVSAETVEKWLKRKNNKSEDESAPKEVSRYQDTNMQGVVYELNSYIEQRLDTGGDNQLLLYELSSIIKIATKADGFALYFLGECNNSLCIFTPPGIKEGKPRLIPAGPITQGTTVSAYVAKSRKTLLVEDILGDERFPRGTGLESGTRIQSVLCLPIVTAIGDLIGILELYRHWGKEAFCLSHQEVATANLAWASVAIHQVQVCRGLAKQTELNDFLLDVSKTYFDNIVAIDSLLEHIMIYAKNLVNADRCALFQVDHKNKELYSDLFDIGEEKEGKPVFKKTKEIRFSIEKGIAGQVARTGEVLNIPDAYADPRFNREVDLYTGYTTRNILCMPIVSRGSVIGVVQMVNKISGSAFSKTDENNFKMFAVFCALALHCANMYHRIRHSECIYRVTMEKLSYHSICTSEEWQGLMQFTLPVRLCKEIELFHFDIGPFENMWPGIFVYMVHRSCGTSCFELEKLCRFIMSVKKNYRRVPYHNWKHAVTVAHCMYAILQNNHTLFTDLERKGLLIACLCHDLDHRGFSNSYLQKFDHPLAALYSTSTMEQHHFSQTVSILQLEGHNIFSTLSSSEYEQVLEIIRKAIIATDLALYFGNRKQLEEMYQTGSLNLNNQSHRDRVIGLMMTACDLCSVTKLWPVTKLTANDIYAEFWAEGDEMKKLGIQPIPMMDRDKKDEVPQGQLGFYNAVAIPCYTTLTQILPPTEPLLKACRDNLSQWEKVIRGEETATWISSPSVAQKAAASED
Chain of P-gp (P08183 whole entry): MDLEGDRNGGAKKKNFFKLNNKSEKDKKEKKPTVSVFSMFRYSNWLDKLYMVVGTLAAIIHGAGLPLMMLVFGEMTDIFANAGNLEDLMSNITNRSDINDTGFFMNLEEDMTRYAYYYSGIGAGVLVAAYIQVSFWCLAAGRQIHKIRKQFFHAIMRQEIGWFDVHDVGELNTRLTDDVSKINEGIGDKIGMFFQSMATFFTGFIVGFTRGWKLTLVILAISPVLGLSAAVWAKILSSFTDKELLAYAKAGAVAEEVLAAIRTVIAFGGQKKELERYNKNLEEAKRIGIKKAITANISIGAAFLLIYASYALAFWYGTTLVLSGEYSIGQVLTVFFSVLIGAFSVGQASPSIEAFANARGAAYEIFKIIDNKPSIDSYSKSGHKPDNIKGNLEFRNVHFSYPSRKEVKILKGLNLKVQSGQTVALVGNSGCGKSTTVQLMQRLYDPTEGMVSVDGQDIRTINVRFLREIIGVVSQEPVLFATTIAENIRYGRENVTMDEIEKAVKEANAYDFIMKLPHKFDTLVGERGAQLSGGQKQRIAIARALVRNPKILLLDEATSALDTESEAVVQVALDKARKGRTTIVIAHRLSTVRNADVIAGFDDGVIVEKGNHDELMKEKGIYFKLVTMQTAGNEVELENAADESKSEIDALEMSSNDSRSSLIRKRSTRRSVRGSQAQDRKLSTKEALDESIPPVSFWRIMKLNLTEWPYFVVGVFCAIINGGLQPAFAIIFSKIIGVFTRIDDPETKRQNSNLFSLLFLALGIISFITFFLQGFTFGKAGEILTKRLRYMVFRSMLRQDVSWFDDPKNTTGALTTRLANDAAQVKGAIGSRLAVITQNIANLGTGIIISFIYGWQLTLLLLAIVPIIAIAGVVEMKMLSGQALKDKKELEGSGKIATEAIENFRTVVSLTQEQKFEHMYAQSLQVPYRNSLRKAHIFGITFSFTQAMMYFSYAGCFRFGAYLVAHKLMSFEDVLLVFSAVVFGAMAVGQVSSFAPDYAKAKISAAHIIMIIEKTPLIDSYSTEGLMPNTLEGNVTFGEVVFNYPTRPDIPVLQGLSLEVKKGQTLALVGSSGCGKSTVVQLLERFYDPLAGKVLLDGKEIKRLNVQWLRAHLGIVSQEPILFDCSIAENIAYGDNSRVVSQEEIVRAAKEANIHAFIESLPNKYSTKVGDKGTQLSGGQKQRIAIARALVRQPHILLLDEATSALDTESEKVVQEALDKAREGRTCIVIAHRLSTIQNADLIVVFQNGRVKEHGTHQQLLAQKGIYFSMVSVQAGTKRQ

Turning to `Cn1cc(-c2ccncc2)c(-c2ccc(OCc3ccc4ccccc4n3)cc2)n1` [MP-10, reference compound], the “Free [brain]” value in series [1] (3 min after dose) is reported as 0.054 ng/g; in series [1] (5 min after dose) it was 0.098 ng/g. Further, the half-life in series [2] is 7 min; in [3] it was 13 min; in [4], 54.9 min. Moreover, the logD in series [5] was determined as 4.28.

On to `Cn1cc(-c2ccncc2)c(-c2ccc(OCc3ccc4ncccc4n3)cc2)n1` [Example 1, 2-((4-(1-methyl-4-(pyridin-4-yl)-1H-pyrazol-3-yl)phenoxy)methyl)-1,5-naphthyridine], for which, in series [6], the IC50 is 1.05 nM.

Consider `FCCn1cc(-c2ccncc2)c(-c2ccc(OCc3nc4ccccc4o3)cc2)n1` [Example 3, 2-((4-(1-(2-fluoroethyl)-4-(pyridin-4-yl)-1H-pyrazol-3-yl)phenoxy)methyl)benzo[d]oxazole], for which the IC50 in series [6] came to 4.7 nM.

Take `Cn1cc(-c2ccncc2)c(-c2ccc(OCc3nc4ccccc4c(=O)n3C)cc2)n1` [Example 4, 3-methyl-2-((4-(1-methyl-4-(pyridin-4-yl)-1H-pyrazol-3-yl)phenoxy)methyl)quinazolin-4(3H)-one]: in series [6], the IC50 was 2 nM.

In the case of `FCCn1cc(-c2ccncc2)c(-c2ccc(OCc3ccc4ccccc4n3)cc2)n1` [JNJ-41510417, reference compound], in series [6], the IC50 turned out to be 0.63 nM.

In the case of `Cc1cnc(COc2ccc(-c3nn(CCF)cc3-c3ccncc3)cc2)c(C)c1` [Janssen B-3, reference compound], in series [6], the IC50 amounted to 0.98 nM.

Turning to `FCCn1cc(-c2ccncc2)c(-c2ccc(OCc3ncc4ccccc4n3)cc2)n1` [Example 9, 2-((4-(1-(2-fluoroethyl)-4-(pyridin-4-yl)-1H-pyrazol-3-yl)phenoxy)methyl)quinazoline], the 50% inhibitory concentration (IC50) in series [6] worked out at 0.18 nM.

For the molecule `COc1ccc(Cc2nccc3cc(OC)c(OC)cc23)cc1OC` [Papaverine, papaverine], the “catalepsy on its own” value in series [7] (alone) is given as “did not cause catalepsy on its own”. In addition, in series [7] (with haloperidol), the “effect on haloperidol-induced catalepsy” value was “potentiated the cataleptic effect”. In series [8], the “reduction of amphetamine-induced hyperactivity” value was “insignificant”. Besides, the PCP-induced hyperactivity entry in [9] was “reduced hyperactivity”.

`FCCn1cc(-c2ccncc2)c(-c2ccc(OCc3ccc4ncccc4n3)cc2)n1` [Example 2, 2-((4-(1-(2-fluoroethyl)-4-(pyridin-4-yl)-1H-pyrazol-3-yl)phenoxy)methyl)-1,5-naphthyridine]: the results for the “Free B/P (ratio of free brain concentration divided by free plasma concentration)” value in series [1] (3 min after dose) and in [1] (5 min after dose) were 0.20 and 0.13, respectively. Besides, the “Free [brain]” value in [1] (3 min after dose) amounted to 0.692 ng/g; in series [1] (5 min after dose), 0.184 ng/g. For the same molecule, the IC50 in series [6] was found to be 0.2 nM. In addition, the half-life in series [2] amounted to 24 min; in [3] it was 12 min; in [4], 79 min. The efflux ratio in series [10] was 1.95. In addition, the “human hepatocyte half-life compared with MP-10, JNJ-41510417 and Janssen B-3” value in series [4] (human Hepatocyte T1/2) was “significantly longer human hepatocyte half-lives”. In addition, the logD in series [5] worked out at 3.71.
